Assay results as given in patent US20260256792A1, “TREATMENT OF CHRONIC SPONTANEOUS URTICARIA BY ADMINISTERING (R)-2-[3-[4-AMINO-3-(2-FLUORO-4-PHENOXY-PHENYL)PYRAZOLO[3,4-D]PYRIMIDIN-1-YL]PIPERIDINE-1-CARBONYL]-4-METHYL-4-[4-(OXETAN-3-YL)PIPERAZIN-1-YL]PENT-2-ENENITRILE” (priority 2023, published 2026).

Test system: moderate-to-severe chronic spontaneous urticaria (CSU)
Assay: Phase 2 CSU study: itch severity score over 7 days (ISS7)
Assay type: in vivo, human
Settings: for Change from Baseline in ISS7 at Week 12, Mean / Change from Baseline in ISS7 at Week 12, LS Mean / Change from Baseline in ISS7 at Week 12, LS Mean Diff vs. placebo: Omalizumab-naïve population; for ISS7 change from baseline at Week 12, LS Mean / ISS7 change from baseline at Week 12, LS Mean Diff vs. placebo: ANCOVA
Excerpt: The study comprises a 12 week, randomized, double-blind, placebo-controlled, multi-center, dose-ranging efficacy and safety phase, followed by a 40 week open label extension (OLE) phase (see FIG. 1). The study consists of three phases and an optional OLE phase. […] Clinically, CSU is characterized by the spontaneous and recurrent appearance of pruritic hives. The proposed primary endpoints were the UAS7 at Week 12 in EU and EU reference countries and the ISS7 in the US. Regardless of where a participant was from, all assessments were the same. The UAS7 score is a composite score containing both the HSS7 and the ISS7. This allowed a global assessment of the two key components of urticaria: hives and itch. […] The UAS is a validated PRO measure. […] The daily UAS scores range from 0 to 6 point/day. […] Patients were to complete the UAS using the e-diary. […] The following secondary endpoints were to be analyzed using the same approach as for the primary endpoint: • Change from baseline in UAS7 at Week 4 • Change from baseline in UAS7 at Week 12 (for US and US reference countries) • Change from baseline in ISS7 at Week 12 (except US and US reference countries) • Change from baseline in HSS7 at Week 12

[1] = 400 mg TID, Baseline ISS7 score <13
[2] = 400 mg TID, Baseline ISS7 score ≥13
[3] = 400 mg TID, Baseline Total IgE (IU/mL) <100
[4] = 400 mg TID, Baseline Total IgE (IU/mL) <300
[5] = 400 mg TID, Baseline Total IgE (IU/mL) ≥100
[6] = 400 mg TID, Baseline Total IgE (IU/mL) ≥300
[7] = 400 mg TID, Baseline UAS7 score <28
[8] = 400 mg TID, Baseline UAS7 score ≥28
[9] = 400 mg TID, Duration of disease (years) 2-10
[10] = 400 mg TID, Duration of disease (years) <2
[11] = 400 mg TID, Duration of disease (years) >10
[12] = 400 mg TID, Ethnicity Non-Hispanic
[13] = 400 mg TID, History of angioedema No
[14] = 400 mg TID, History of angioedema Yes
[15] = 400 mg TID, Race All the Others
[16] = 400 mg TID, Region Eastern Europe
[17] = 400 mg TID, Region Latin America
[18] = 400 mg TID, Region Western Countries
[19] = 400 mg TID, omalizumab-naïve population
[20] = 400 mg TID, omalizumab-naïve population with outlier removed
[21] = End of Study, 400 mg BID, Omalizumab-Naïve

SMILES: CC(C)(C=C(C#N)C(=O)N1CCC[C@@H](n2nc(-c3ccc(Oc4ccccc4)cc3F)c3c(N)ncnc32)C1)N1CCN(C2COC2)CC1 [rilzabrutinib, (R)-2-[3-[4-amino-3-(2-fluoro-4-phenoxy-phenyl)pyrazolo[3,4-d]pyrimidin-1-yl]piperidine-1-carbonyl]-4-methyl-4-[4-(oxetan-3-yl)piperazin-1-yl]pent-2-enenitrile]
- Change from Baseline in ISS7 at Week 12, Mean (400 mg TID, Baseline H1-antihistamines dose 2 to 4-fold standard dose): −12.76
- Change from Baseline in ISS7 at Week 12, LS Mean [1]: −3.73
- Change from Baseline in ISS7 at Week 12, LS Mean Diff vs. placebo [1]: −1.01
- Change from Baseline in ISS7 at Week 12, Mean [1]: −3.50
- Change from Baseline in ISS7 at Week 12, LS Mean [2]: −10.18
- Change from Baseline in ISS7 at Week 12, LS Mean Diff vs. placebo [2]: −4.45
- Change from Baseline in ISS7 at Week 12, Mean [2]: −10.79
- Change from Baseline in ISS7 at Week 12, LS Mean [3]: −9.19
- Change from Baseline in ISS7 at Week 12, LS Mean Diff vs. placebo [3]: −4.95
- Change from Baseline in ISS7 at Week 12, Mean [3]: −11.17
- Change from Baseline in ISS7 at Week 12, LS Mean [4]: −9.55
- Change from Baseline in ISS7 at Week 12, LS Mean Diff vs. placebo [4]: 5.04
- Change from Baseline in ISS7 at Week 12, LS Mean [5]: −9.13
- Change from Baseline in ISS7 at Week 12, LS Mean Diff vs. placebo [5]: −3.10
- Change from Baseline in ISS7 at Week 12, Mean [5]: −9.49
- Change from Baseline in ISS7 at Week 12, LS Mean [6]: −8.12
- Change from Baseline in ISS7 at Week 12, LS Mean Diff vs. placebo [6]: −1.58
- Change from Baseline in ISS7 at Week 12, Mean [6]: 8.74
- Change from Baseline in ISS7 at Week 12, LS Mean [7]: −6.43
- Change from Baseline in ISS7 at Week 12, LS Mean Diff vs. placebo [7]: −3.26
- Change from Baseline in ISS7 at Week 12, Mean [7]: −7.61
- Change from Baseline in ISS7 at Week 12, LS Mean [8]: −10.62
- Change from Baseline in ISS7 at Week 12, LS Mean Diff vs. placebo [8]: −4.02
- Change from Baseline in ISS7 at Week 12, Mean [8]: −11.99
- Change from Baseline in ISS7 at Week 12, LS Mean [9]: −8.84
- Change from Baseline in ISS7 at Week 12, LS Mean Diff vs. placebo [9]: −1.82
- Change from Baseline in ISS7 at Week 12, Mean [9]: −9.37
- Change from Baseline in ISS7 at Week 12, LS Mean [10]: −9.77
- Change from Baseline in ISS7 at Week 12, LS Mean Diff vs. placebo [10]: −6.12
- Change from Baseline in ISS7 at Week 12, Mean [10]: −10.93
- Change from Baseline in ISS7 at Week 12, LS Mean [11]: −9.33
- Change from Baseline in ISS7 at Week 12, LS Mean Diff vs. placebo [11]: −5.64
- Change from Baseline in ISS7 at Week 12, Mean [11]: −11.00
- Change from Baseline in ISS7 at Week 12, LS Mean (400 mg TID, Ethnicity Hispanic): 7.36
- Change from Baseline in ISS7 at Week 12, LS Mean Diff vs. placebo (400 mg TID, Ethnicity Hispanic): −0.35
- Change from Baseline in ISS7 at Week 12, Mean (400 mg TID, Ethnicity Hispanic): −8.13
- Change from Baseline in ISS7 at Week 12, LS Mean [12]: −10.16
- Change from Baseline in ISS7 at Week 12, LS Mean Diff vs. placebo [12]: −5.69
- Change from Baseline in ISS7 at Week 12, Mean [12]: −11.83
- Change from Baseline in ISS7 at Week 12, Mean (400 mg TID, Gender Male): −7.08
- Change from Baseline in ISS7 at Week 12, LS Mean [13]: −9.56
- Change from Baseline in ISS7 at Week 12, LS Mean Diff vs. placebo [13]: −4.22
- Change from Baseline in ISS7 at Week 12, Mean [13]: −10.86
- Change from Baseline in ISS7 at Week 12, LS Mean [14]: −8.24
- Change from Baseline in ISS7 at Week 12, LS Mean Diff vs. placebo [14]: −2.99
- Change from Baseline in ISS7 at Week 12, Mean [14]: −9.01
- ISS7 at Week 12, Mean (400 mg TID, ITT population): 5.59
- ISS7 at Week 12, Median (400 mg TID, ITT population): 6.00
- ISS7 change from baseline at Week 12, Mean (400 mg TID, ITT population): −10.68
- ISS7 change from baseline at Week 12, Median (400 mg TID, ITT population): −10.67
- LS mean change from baseline in ISS7 at Week 12 (400 mg TID, ITT population): −9.58 points
- ISS7 change from baseline at Week 12, LS Mean (400 mg TID, ITT population): −9.58 points
- ISS7 change from baseline at Week 12, LS Mean Diff vs. placebo (400 mg TID, ITT population): −3.26
- decrease from baseline in ISS7 (400 mg TID, ITT population, belongs to LS mean change −6.65): 40.41%
- LS mean change in ISS7 from baseline (see Table 29) (400 mg TID, ITT population, following one week of treatment): −6.65 points
- Change from Baseline in ISS7 at Week 12, LS Mean [15]: −8.74
- Change from Baseline in ISS7 at Week 12, LS Mean Diff vs. placebo [15]: −5.27
- Change from Baseline in ISS7 at Week 12, Mean [15]: −8.74
- Change from Baseline in ISS7 at Week 12, LS Mean (400 mg TID, Race White): −9.18
- Change from Baseline in ISS7 at Week 12, LS Mean Diff vs. placebo (400 mg TID, Race White): −3.17
- Change from Baseline in ISS7 at Week 12, Mean (400 mg TID, Race White): −10.88
- Change from Baseline in ISS7 at Week 12, LS Mean (400 mg TID, Region Asia): −8.33
- Change from Baseline in ISS7 at Week 12, LS Mean Diff vs. placebo (400 mg TID, Region Asia): −4.87
- Change from Baseline in ISS7 at Week 12, Mean (400 mg TID, Region Asia): −8.21
- Change from Baseline in ISS7 at Week 12, LS Mean [16]: −14.02
- Change from Baseline in ISS7 at Week 12, LS Mean Diff vs. placebo [16]: −1.35
- Change from Baseline in ISS7 at Week 12, Mean [16]: −13.17
- Change from Baseline in ISS7 at Week 12, LS Mean [17]: −6.07
- Change from Baseline in ISS7 at Week 12, LS Mean Diff vs. placebo [17]: 0.52
- Change from Baseline in ISS7 at Week 12, Mean [17]: −7.34
- Change from Baseline in ISS7 at Week 12, LS Mean [18]: 9.58
- Change from Baseline in ISS7 at Week 12, LS Mean Diff vs. placebo [18]: −5.03
- Change from Baseline in ISS7 at Week 12, Mean [18]: −11.79
- ISS7 at Week 12, Mean [19]: 5.77
- ISS7 at Week 12, Median [19]: 7.00
- ISS7 change from baseline at Week 12, Mean [19]: −10.27
- ISS7 change from baseline at Week 12, Median [19]: −10.33
- LS mean change from baseline in ISS7 at Week 12 [19]: −9.21
- LS mean reduction in ISS7 (see Table 30) [19]: −6.13
- ISS7 at Week 12, Mean [20]: 5.77
- ISS7 at Week 12, Median [20]: 7.00
- ISS7 change from baseline at Week 12, Mean [20]: −10.27
- ISS7 change from baseline at Week 12, Median [20]: −10.33
- ISS7 change from baseline at Week 12, LS Mean [20]: −9.57 points
- ISS7 change from baseline at Week 12, LS Mean Diff vs. placebo [20]: −3.86
- LS mean change from baseline in ISS7 at Week 12 (400 mg TID, omalizumab-naïve population, outlier removed): −9.57
- ISS7 change from baseline at Week 12, LS Mean [19]: −9.21 points
- ISS7 change from baseline at Week 12, LS Mean Diff vs. placebo [19]: −3.44
- ISS7 Mean (SD) [21]: 7.80 (8.76)
- ISS7 Median [21]: 7.00
- ISS7 Mean (SD) (End of Study, 400 mg QPM, Omalizumab-Naïve): 5.74 (8.03)
